Test results as given in patent publication US10980231B2, “Insect repellent” (Kao Corporation, priority 2015, dated 2021).

tested on: Asian tiger mosquito; experiment: Evaluation of inhibition of seeking behavior of mosquito for human arm (landing count); assay type: in vivo; set-up: tested at 0.1 vol %; settings: sample 0.1 vol % in ethanol on breathable sheet on arm; landings in 5 minutes vs ethanol only; female mosquitoes
Method: Mosquitoes were prepared for evaluation in the same manner as in Example 1. Approximately 150 to 200 female Asian tiger mosquitoes were transferred in a plastic cage (30×30×30 cm). […] The other three sides were covered with a net, preventing a smell from remaining in the box. A breathable sheet for disposable diapers (air permeance (JIS P8117): 2 sec/300 mL·32 sheets or higher, water vapor transmission rate (JIS Z0208): 1 g/100 cm^2·1 hr or higher) was cut into a size of 6 cm×6 cm, and the resultant was fixed with a tape to the inner side of a Qualatex glove (AS ONE 8-4053-02) cut in 5 cm×5 cm, and […] of an evaluation sample, the concentration of which had been adjusted to 0.1 vol % with ethanol, was uniformly applied onto the breathable sheet. After the application, the resultant was left to stand for approximately 5 minutes, and the attraction test was conducted. The arm was covered with the Qualatex glove provided with the breathable sheet, and inserted in the plastic cage. After the insertion, the number of mosquitoes which landed on the breathable sheet in 5 minutes was counted. In the case that a mosquito landed a plurality of times, all of the landings were counted. In view of the influence of a sample on the mosquitoes, the test was conducted just four times in one cage, and the cage was then replaced with another cage and other mosquitoes were used for the subsequent tests. The inhibitory rate relative to the number of landings with application of ethanol solvent only was calculated to determine the inhibitory effect. Inhibitory rate (%)=100×(1−[number of landings with application of sample]/[number of landings with application of ethanol]) (Equation 2)

SMILES	Inhibitory rate (%)
CCCCCCCCCCO [1-Decanol, 1-decanol]	97.5%
C=CC(O)CCCCC (centres unmarked) [1-Octen-3-ol, 1-octen-3-ol]	70.5%
CC1=CC(C)C(CO)C(C)C1 (centres unmarked) [2,4,6-Trimethyl-3-cyclohexene-1-methanol, 2,4,6-trimethyl-3-cyclohexene-1-methanol]	89%
CCCc1ccc(O)c(OC)c1 [2-Methoxy-4-propylphenol, 2-methoxy-4-propylphenol]	100%
C=CCCCCCCCCO [9-Decen-1-ol, 9-decen-1-ol]	93.5%
CCOC(=O)C(C)C1CCCCC1 (centres unmarked) [Ethyl 2-cyclohexylpropionate, ethyl 2-cyclohexylpropionate]	58%
CCCCC(CC)C(=O)OCC (centres unmarked) [Ethyl 2-ethylhexanoate, ethyl 2-ethylhexanoate]	66%
CCOC(=O)Cc1ccccc1 [Ethyl phenylacetate, ethyl phenylacetate]	38.5%
CCC/C=C/COC(C)=O [trans-2-Hexenyl acetate, trans-2-hexenyl acetate]	54%

tested on: not given; experiment: not given; settings: cited from earlier work

SMILES	skin permeability
CCN(CC)C(=O)c1cccc(C)c1 [DEET, N,N-diethyl-3-methylbenzamide]	high skin permeability

tested on: insects; experiment: not given; settings: repellent use; cited from earlier work

SMILES	duration
CCN(CC)C(=O)c1cccc(C)c1 [DEET, N,N-diethyl-3-methylbenzamide]	2 to 3 h
